Each structure is given as a SMILES string.

The series is described as follows: gradient 5% acetonitrile 3 min, to 50% in 2 min, to 85% in 15 min, held 3 min, 100 µL/min. Conditions: column: Zorbax Extend-C18 2.1 x 50 mm; eluents: water / acetonitrile, 0.1% formic acid. The gist of the method: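 In both positive and negative ionization mode, a quadrupole time-of-flight mass spectrometer coupled to HPLC analyzed pure standards run in mixtures of ~100 molecules. The Zorbax Extend-C18 column (2.1 × 50 mm, 1.8 μm) was operated at 100 μL/min with water and acetonitrile, each containing 0.1% formic acid. The dead volume was 40 μL and the dwell volume 900 μL. Retention time came from adduct peaks that were computationally picked and individually inspected by hand.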
Consider `O=C(COc1ccc(NC(=O)C2CC2)cn1)NCc1cc(F)cc(F)c1`, for which the RP-LC retention time amounted to 754 s.
`CC(C)n1cnc(S(=O)(=O)N2CCCC(C(=O)Nc3ccc(F)cc3)C2)c1` (stereo not given) yielded an RP-LC retention time of 765 s.
To `COc1ccccc1N1CCN(c2ccnc(SCC(=O)Nc3ccccc3C)n2)CC1` belongs 666 s; to `Cc1ccc(C)c(S(=O)(=O)NCCn2c(C)cnc2C2CCC2)c1`, 656 s; to `COCCN1C(=O)[C@H]2CN(Cc3ccc(F)cc3Cl)C[C@H]2C1=O`, 693 s.
To `Cc1nc(-c2cn(C(C)C)c3ncccc23)sc1C(=O)N1CCN(C(C)C)CC1` belongs 622 s; to `O=C(CCSc1ccccc1)NCC(c1ccco1)N1CCOCC1` (stereo not given), 574 s.
The value for `CO[C@H]1C(=O)N(C(C)C)[C@H]1C1CCN(S(=O)(=O)c2cccc3cccnc23)CC1` was 775 s; that for `Cc1ccc(-c2csc(Cc3nc(-c4ccccc4)no3)n2)cc1` was 1250 s; that for `O=C(Nc1ccc(N2CCN(C3CCCC3)C2=O)nc1)c1cccc(F)c1` was 876 s.
In the case of `CC(C)CCNC(=O)c1ccc(Oc2nccnc2N2CCC(C)CC2)cc1`, the RP-LC retention time stood at 1170 s.
With `CCC(CC)C(=O)Oc1coc(CSc2nc(C)cs2)cc1=O`, the RP-LC retention time turned out to be 882 s.
The value for `COc1ccccc1-c1noc(C2CCCN2C(=O)Nc2ccc(Br)cc2)n1` (stereo not given) was 964 s.
In turn, `Fc1ccc(-c2ccc(CNCC3CCNCC3)o2)cc1Cl` registered an RP-LC retention time of 582 s.
`CCn1cc(CN2CCC(C(=O)NC3CCCCCC3)CC2)c2cc(OC)ccc21`: the RP-LC retention time came out at 741 s.
Turning to `CCOc1ccc(NS(=O)(=O)c2c(C)sc(C)c2-c2n[nH]c(C)c2C)cc1`, the RP-LC retention time stood at 1040 s.
To `CN(CC1CCOC1)C(=O)Nc1ccccc1F` (stereo not given) belongs 656 s.
The value for `Cc1nc(-c2noc(-c3ccccc3)n2)cn1CC(=O)NCc1ccccc1F` was 810 s; that for `CCN(C(=O)c1cc(OC)cc(OC)c1)c1nc(-c2ccccc2)cs1` was 1260 s; that for `O=C(NCCc1c[nH]c2ccc(Cl)cc12)C1CCN(c2ccncc2)CC1` was 643 s.
`COC(=O)c1ccc2c(=O)n(Cc3ccc(F)cc3)c(N3CCN(C)CC3)nc2c1`: the RP-LC retention time is 668 s.
The value for `COc1ccc(-n2c(=O)n(C)c(=O)c3cc(C(=O)Nc4ccc(Cl)cc4)cnc32)cc1` was 966 s.
To `Cc1ccn2cc(C(=O)NCc3cc(F)cc(F)c3)nc2c1` belongs 678 s; to `CCCN(C(=O)Cc1ccccc1)c1nc(-c2ccccc2)cs1`, 1320 s.
Take `COc1ccc(C(=O)N2CC(n3cc(COCC4CC4)nn3)C2)c(OC)c1`: the RP-LC retention time was determined as 705 s.
In turn, `NS(=O)(=O)c1ccc(NC(=O)CSc2ccc3ccccc3n2)cc1` displayed an RP-LC retention time of 736 s.
The value for `Cc1ccc(C)c(NC(=O)N2CCCC(C)(C(=O)NCc3ccc(F)cc3)C2)c1` (stereo not given) was 963 s.
The value for `Cc1ccc(C)c(N2CCN(C(=O)C3CCN(C(=O)C4Sc5ccccc5NC4=O)CC3)CC2)c1` (stereo not given) was 944 s; that for `Cc1cc(C)cc(NC(=O)Cn2ncc3c(c2=O)N(CC2CC2)C(=O)CS3)c1` was 883 s.
To `Cc1ccccc1C(=O)NCCN1CCN(c2ccc(Cl)cc2)CC1` belongs 610 s; to `CC(=O)N1CCc2sc(C(=O)NC(C)c3ccccc3)cc2C1` (stereo not given), 708 s; to `COc1ccccc1CNC(=O)CN1CCc2[nH]c3c(C)c(Cl)ccc3c(=O)c2C1`, 649 s.
In turn, `O=C(c1ccccc1C(F)(F)F)N1CCN=C1SCc1cccnc1` returned an RP-LC retention time of 590 s.
To `Cc1ccc(CNC(=O)C2CCN(S(C)(=O)=O)c3ccccc3O2)cc1` (stereo not given) belongs 854 s.
`Cc1cc(Cl)ccc1NS(=O)(=O)c1ccc2c(c1)NC(=O)C(C(=O)N1CCCC1)S2` (stereo not given) showed an RP-LC retention time of 827 s.
The value for `Cc1cc(C)n2nc(SCC(=O)Nc3cccc(C(F)(F)F)c3)nc2n1` was 827 s.
Compound `Cn1c(-c2cccc(C(=O)NCc3cccs3)c2)nc2cccnc21` gave an RP-LC retention time of 688 s.
The value for `CCc1cccc(C)c1Nc1c(-c2ccc(SC)cc2)nc2cnccn12` was 1070 s.
As to `CCS(=O)(=O)Nc1ccc2nc(N3CCN(c4ccccc4OC)CC3)cc(C(=O)O)c2c1`, the RP-LC retention time worked out at 633 s.
To `CC(=O)N1CCc2sc(C(=O)N3CCN(c4ccc(Cl)cc4)CC3)cc2C1` belongs 837 s; to `CCCN1C(=O)c2cc(S(=O)(=O)Nc3ccccc3F)ccc2Oc2cccnc21`, 1030 s; to `O=C(CCc1c(-c2ccc(Br)cc2)nc2ccccn12)NC1CCCCC1`, 702 s.
The value for `CCOc1ccc2nc(Nc3ncc4c(n3)CC(c3cccc(Cl)c3)CC4=O)nc(C)c2c1` (stereo not given) was 899 s; that for `Cc1nn(-c2ccccc2)c2sc(C(=O)NC(C)C)cc12` was 966 s.
To `Cc1oc(C2CCN(S(=O)(=O)c3ccc(C(C)C)cc3)CC2)nc1C(=O)N(C)C` belongs 966 s; to `CCC(=O)NCc1nc2c(n1CC)CN(S(=O)(=O)c1ccc(F)cc1)CC2`, 575 s; to `CC(C)NC(=O)c1nnc(-c2ccc(S(=O)(=O)N3CCCC3)cc2)o1`, 779 s.
As for `CC(C)NC(C)Cc1ccc(I)cc1` (stereo not given), the RP-LC retention time is 746 s.
The value for `CCn1c(=O)c2cc(C(=O)Nc3ccc(OC)cc3OC)nn2c2ccccc21` was 1030 s.
Compound `O=C1CCCCC(Cc2ccccc2)(C(=O)NC2CCS(=O)(=O)C2)N1` (stereo not given) yielded an RP-LC retention time of 656 s.
The value for `CC1CCCCN1CCNC(=O)c1cc2c(s1)N(C)CCCC2` (stereo not given) was 672 s.
To `CCn1ccc2c(cc(C(=O)Nc3ccc(C)cc3)n2C)c1=O` belongs 769 s; to `CCOC(=O)c1nc(N2CCN(Cc3ccccc3)CC2)c2ccccc2n1`, 623 s.
The value for `CN1C(=O)c2cc(C(=O)NCCc3ccccc3)nn2CC1(C)C(=O)NC1CCCCCC1` (stereo not given) was 795 s.
`Cn1cc(CCN2CCC(C(=O)N3CCN(c4ccccc4)CC3)CC2)c2cccnc21` gave an RP-LC retention time of 617 s.
In turn, `Cc1cc(OCC(=O)NCc2ccccc2Br)nc(N2CCCC2)n1` yielded an RP-LC retention time of 640 s.
To `O=c1c2sccc2n(Cc2nc(-c3cccc(C(F)(F)F)c3)no2)c(=O)n1-c1ccccc1F` belongs 1090 s; to `Cc1ccc(C)c(Cn2nc3c(S(=O)(=O)N4CCCCC4)cccn3c2=O)c1`, 974 s; to `CCn1cc(S(=O)(=O)N2C[C@@H](C(=O)NC)[C@H](c3n[nH]c(C)n3)C2)cn1`, 577 s.
For the compound `CCOC(=O)c1ccc(Nc2c(-c3cccc(O)c3)nc3cnccn23)cc1`, the RP-LC retention time turned out to be 717 s.
With `COC(=O)c1ncn2c1C(=O)N(Cc1cccc(C)c1)C(C)(C(=O)NCc1ccccc1)C2` (stereo not given), the RP-LC retention time amounted to 759 s.
The value for `CN(C)C(=O)c1n[nH]c2c1CN(C(=O)c1ccccc1C(F)(F)F)CC2` was 725 s; that for `CC(=O)N1CCc2cc(S(=O)(=O)Nc3ccc4c(c3)-c3nc(C)sc3CC4)ccc21` was 784 s; that for `O=C(NCc1ccc(F)cc1)C1CCCN(c2nccnc2Sc2ccccc2)C1` (stereo not given) was 1020 s.
The value for `COc1cc(CNC(=O)c2ccc3c(c2)NC(=O)C2CCCCN32)cc(OC)c1OC` (stereo not given) was 726 s.
The value for `CC(C)c1cc(C(=O)N2CCCCC2)nc2ccnn12` was 767 s; that for `Cc1cc(NC(=O)C2CCCN(S(=O)(=O)c3cc(-c4noc(C5CCCC5)n4)cs3)C2)no1` (stereo not given) was 1110 s.
`CCn1c(C(=O)N(C)c2ccc(Br)cc2)cc2c(=O)oc3ccccc3c21` displayed an RP-LC retention time of 1030 s.
To `COc1ccc(Cl)cc1S(=O)(=O)NCCc1c[nH]c2ncccc12` belongs 654 s; to `CS(=O)(=O)N1CCC(c2nnc(-c3ccco3)s2)CC1`, 655 s.
`Cc1cnc(-c2ccccc2)n1CCNS(=O)(=O)c1cccc(F)c1`: the RP-LC retention time worked out at 633 s.
`Cc1nc2cc(N3CCC(C(=O)Nc4ccc5c(c4)OCCO5)CC3)cnc2nc1C` registered an RP-LC retention time of 697 s.
Regarding `O=S(=O)(c1ccc(-c2nnc(C3CCC3)o2)o1)N1CCOCC1`, the RP-LC retention time was 780 s.
To `O=C(Cn1ncc2c(c1=O)N(CC1CC1)C(=O)CS2)N1CCN(c2ccccc2)CC1` belongs 788 s; to `COCCn1cc(CCNC(=O)Nc2ccc(Br)cc2)c2cccnc21`, 778 s; to `CC1=C(c2ccc(F)cc2)S(=O)(=O)N=C1N1CCC(NC(=O)C2CCCO2)CC1` (stereo not given), 716 s.
Compound `CCOC(=O)N1CCN(C(=O)CSc2ccc(-c3ccco3)nn2)CC1` yielded an RP-LC retention time of 661 s.
To `O=S(=O)(c1cccc(C(F)(F)F)c1)N1CCc2nc(-c3ccc(F)cc3)ncc2C1` belongs 1170 s; to `COc1ccc(NC(=O)Nc2cccn3c(C4CCC4)nnc23)c(C)c1`, 787 s; to `CN(C)CCNC(=O)Cc1cccn1-c1ccc(F)cc1`, 598 s.

Values taken from the METLIN SMRT retention time set (Domingo-Almenara et al. 2019).
